The supplement of paper PMC11451515

Assays:
Details in all cases: 48 h
NOMO1 [1] = assay: cell viability relative to DMSO control; higher = less cytotoxic
In short: (§1)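 Leukemia cells (NOMO1 or SEM, 500 cells/well; P12-Ichikawa, 1000 cells/well) were seeded in 5 μl in 1536-well plates after at least four passages of adaptation to each medium. They received library compounds in DMSO by pin dosing, 11 threefold points from 47 μM to 0.79 nM. Luminescence with CellTiter-Glo One was read after 48 h at 37°C. Viability is stated per plate relative to DMSO wells, with cell-free wells as background.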

P12-Ichikawa [2] = assay: as above
In short: as §1

SEM cells [3] = assay: as above
In short: as §1

NOMO1 [4] = assay: AUC of viability dose-response curve (% viability x log10 dose units); higher = less sensitive
In short: (§2)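 Medium-adapted leukemia cells in 1536-well plates, at 500 or 1000 cells/well, were incubated for 48 h at 37°C with library compounds in DMSO at 11 threefold doses from 47 μM to 0.79 nM. CellTiter-Glo One luminescence normalised per plate to DMSO and cell-free wells was fitted with a four-parameter log-logistic model over log10 doses. Area under the curve was integrated from this fit by trapezoidal rule, with curves beyond full viability scaled and failed quality-control curves removed.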

P12-Ichikawa [5] = assay: as above
In short: as §2

SEM cells [6] = assay: as above
In short: as §2

COC[C@H](NC(=O)c1cnc(C)s1)C(=O)N[C@@H](COC)C(=O)N[C@@H](Cc1ccccc1)C(=O)[C@@]1(C)CO1
cell viability [%]
Details | NOMO1 [1] | P12-Ichikawa [2] | SEM cells [3]
HPLM + 10% dialyzed FBS, 0.000781 µM | 105 | 96.6 | 116
HPLM + 10% dialyzed FBS, 0.00234 µM | 106 | 99.8 | 97.1
HPLM + 10% dialyzed FBS, 0.00702 µM | 111 | 98.3 | 110
HPLM + 10% dialyzed FBS, 0.0211 µM | 107 | 95 | 121
HPLM + 10% dialyzed FBS, 0.0632 µM | 97.2 | 105 | 92.3
HPLM + 10% dialyzed FBS, 0.19 µM | 83.5 | 69.8 | 5.47
HPLM + 10% dialyzed FBS, 0.569 µM | 23.5 | 4.41 | 3.74
HPLM + 10% dialyzed FBS, 1.71 µM | 6.64 | 3.23 | 3.51
HPLM + 10% dialyzed FBS, 5.12 µM | 1.03 | 1.91 | 2.04
HPLM + 10% dialyzed FBS, 15.4 µM | 0.172 | 1.12 | 1.53
HPLM + 10% dialyzed FBS, 46.1 µM | 1.92 | 2.28 | 2.48
RPMI 5 mM glucose + 10% FBS, 0.000781 µM | 98.6 | 89 | 102
RPMI 5 mM glucose + 10% FBS, 0.00234 µM | 108 | 98.2 | 91.6
RPMI 5 mM glucose + 10% FBS, 0.00702 µM | 92.9 | 99.8 | 111
RPMI 5 mM glucose + 10% FBS, 0.0211 µM | 94.3 | 96.3 | 120
RPMI 5 mM glucose + 10% FBS, 0.0632 µM | 93.6 | 89.8 | 82
RPMI 5 mM glucose + 10% FBS, 0.19 µM | 98.1 | 78.5 | 6.81
RPMI 5 mM glucose + 10% FBS, 0.569 µM | 28.1 | 3.57 | 3.82
RPMI 5 mM glucose + 10% FBS, 1.71 µM | 6.29 | 2.76 | 3.59
RPMI 5 mM glucose + 10% FBS, 5.12 µM | 1.06 | 1.79 | 2.31
RPMI 5 mM glucose + 10% FBS, 15.4 µM | 0.581 | 1.04 | 1.56
RPMI 5 mM glucose + 10% FBS, 46.1 µM | 1.29 | 1.83 | 2.78
RPMI 5 mM glucose + 10% dialyzed FBS, 0.000781 µM | 98.8 | 90.8 | 81.9
RPMI 5 mM glucose + 10% dialyzed FBS, 0.00234 µM | 98.1 | 93.5 | 87.7
RPMI 5 mM glucose + 10% dialyzed FBS, 0.00702 µM | 97.6 | 94.3 | 108
RPMI 5 mM glucose + 10% dialyzed FBS, 0.0211 µM | 96.7 | 95.7 | 101
RPMI 5 mM glucose + 10% dialyzed FBS, 0.0632 µM | 98.3 | 87.4 | 70.3
RPMI 5 mM glucose + 10% dialyzed FBS, 0.19 µM | 88.1 | 58.1 | 5.77
RPMI 5 mM glucose + 10% dialyzed FBS, 0.569 µM | 30.2 | 3.41 | 3.78
RPMI 5 mM glucose + 10% dialyzed FBS, 1.71 µM | 5.68 | 2.83 | 2.78
RPMI 5 mM glucose + 10% dialyzed FBS, 5.12 µM | 2.49 | 1.67 | 1.96
RPMI 5 mM glucose + 10% dialyzed FBS, 15.4 µM | 0.98 | 0.842 | 1.46
RPMI 5 mM glucose + 10% dialyzed FBS, 46.1 µM | 1.62 | 1.82 | 2.4

AUC of viability dose-response curve
Details | NOMO1 [4] | P12-Ichikawa [5] | SEM cells [6]
HPLM + 10% dialyzed FBS | 265 | 251 | 214
RPMI 5 mM glucose + 10% FBS | 273 | 245 | 213
RPMI 5 mM glucose + 10% dialyzed FBS | 271 | 231 | 199
